# In patent publication US11554182B2, “Macrocyclic complexes of alpha-emitting radionuclides and their use in targeted radiotherapy of cancer” (CORNELL UNIVERSITY, priority 2017, dated 2023):
# Assay: In vivo biodistribution of ^225Ac complexes after intravenous injection
# Design: species or system C57BL/6 mice
# Method: In Vivo Biodistribution of ^225Ac Complexes of Macropa and DOTA. All experiments were approved by the Institutional Animal Care Committee (IACC) of the University of British Columbia and were performed in accordance with the Canadian Council on Animal Care Guidelines. A total of 9 female C57BL/6 mice (6-8 weeks old, 20-25 g) were used for the biodistribution study of each radiometal complex, n=3 for each time point.
# Macropa (100 μL of a 1 mg/mL solution in NH4OAc) was diluted with 387 μL of NH4OAc (1 M, pH 7), and an aliquot (203 μL) of ^225Ac(NO3)3 (˜157 kBq) was then added; the pH of this solution was adjusted to 6.5-7 by the addition of 1 M NaOH (210 μL, trace metal grade). After 5 min at ambient temperature, the reaction solution was analyzed by TLC (0.4 M pH 4 sodium citrate as the eluent), which confirmed >95% radiochemical yield. The reaction was allowed to proceed overnight, and the radiochemical yield was again confirmed to be >95% the following morning. At this time, mice were anesthetized by 2% isoflurane, and approximately 100 μL (10-15 kBq) of the [^225Ac(macropa)]^+ complex were injected into the tail vein of each mouse. After injection, mice were allowed to recover and roam freely in their cages, and were euthanized by CO2 inhalation at 15 min, 1 h, or 5 h (n=3 at each time point) post-injection. Blood was collected by cardiac puncture and placed into an appropriate test tube for scintillation counting. Tissues collected included heart, liver, kidneys, lungs, small intestine, large intestine, brain, bladder, spleen, stomach, pancreas, bone, thyroid, tail, urine, and feces. Tissues were weighed and then counted with a calibrated gamma counter (Packard, Cobra II model 5002) using three energy windows: 60-120 keV (window A), 180-260 keV (window B), and 400-480 keV (window C). Counting was performed both immediately after sacrifice and after 7 days; counts were decay corrected from the time of injection and then converted to the percentage of injected dose (% ID) per gram of tissue (% ID/g). No differences were noted between the data; therefore, the biodistributions are reported using the data acquired immediately using window A.
# The biodistribution studies of [^225Ac(DOTA)]^− and ^225Ac(NO3)3 were carried out as described above for [^225Ac(macropa)]^+, with the following modifications. [^225Ac(DOTA)]^− was prepared by adding ^225Ac(NO3)3 (338 μL, 1.1 MBq) to a solution of DOTA (100 μg, 20 mg/mL in H2O) in NH4OAc (467 μL, 0.15 M, pH 7). The pH of the solution was adjusted to 7 using NH4OAc (150 μL, 1 M, pH 7) and the solution was heated at 85° C. for 45 min. RCY>99% was confirmed by TLC as described above. [^225Ac(DOTA)]^− was diluted with saline to a final concentration of 0.05 MBq/100 μL, and 100 μL were injected into each mouse. ^225Ac(NO3)3 (˜58 μL, 0.4 MBq) was diluted and injected in the same manner as [^225Ac(DOTA)]^−. One mouse that was to be euthanized at the 5 h time point in the [^225Ac(DOTA)]^− study died shortly after injection. In the same manner, one mouse that was to be euthanized at the 1 h time point in the ^225Ac(NO3)3 study died.
# The in vivo stability [^225Ac(macropa)]^+ was examined by comparing its biodistribution to those of ^225Ac(NO3)3 and [^225Ac(DOTA)]^−. C57BL/6 mice were injected via tail vein with 10-50 kBq of each radiometal complex and were sacrificed after 15 min, 1 h, or 5 h. The amount of ^225Ac retained in each organ was quantified by gamma counting and reported as the percent of injected dose per gram of tissue (% ID/g). The results of these studies are compiled in Tables 1-3. Inadequate stability of an ^225Ac complex leading to the loss of radioisotope in vivo is manifested by the accumulation of ^225Ac in the liver, spleen, and bone of mice.^[11,12,32] […] The biodistribution profile of [^225Ac(macropa)]^+ (FIG. 3B) differs markedly from that of ^225Ac(NO3)3. […]
# [1] = 1 h after i.v. injection, energy window B (180-260 keV)
# [2] = 1 h after i.v. injection, energy window C (400-480 keV)
# [3] = 5 h after i.v. injection, energy window A (60-120 keV)
# [4] = 5 h after i.v. injection, energy window B (180-260 keV)
# [5] = 5 h after i.v. injection, energy window C (400-480 keV)
# [6] = i.v. injection, C57BL/6 mice, up to 5 h
structure (smiles),measurement,setting,value
O=C([O-])c1cccc(CN2CCOCCOCCN(Cc3cccc(C(=O)[O-])n3)CCOCCOCC2)n1.[225Ac+3] [[^225Ac(macropa)]^+],% ID/g in pancreas,[1],0.12 % ID/g
same,% ID/g in small intestines,[1],0.94 % ID/g
same,% ID/g in spleen,[1],0.23 % ID/g
same,% ID/g in stomach,[1],0.33 % ID/g
same,% ID/g in tail,[1],1.82 % ID/g
same,% ID/g in thyroids,[1],0.10 % ID/g
same,% ID/g in urine,[1],517.19 % ID/g
same,% ID/g in bladder,[2],9.00 % ID/g
same,% ID/g in blood,[2],0.54 % ID/g
same,% ID/g in bone (femur + joint),[2],0.70 % ID/g
same,% ID/g in brain,[2],0.23 % ID/g
same,% ID/g in feces,[2],0.69 % ID/g
same,% ID/g in heart,[2],0.23 % ID/g
same,% ID/g in kidneys,[2],17.38 % ID/g
same,% ID/g in large intestines,[2],0.79 % ID/g
same,% ID/g in liver,[2],1.08 % ID/g
same,% ID/g in lungs,[2],0.84 % ID/g
same,% ID/g in pancreas,[2],0.43 % ID/g
same,% ID/g in small intestines,[2],1.62 % ID/g
same,% ID/g in spleen,[2],0.48 % ID/g
same,% ID/g in stomach,[2],0.17 % ID/g
same,% ID/g in tail,[2],2.57 % ID/g
same,% ID/g in thyroids,[2],8.34 % ID/g
same,% ID/g in urine,[2],641.63 % ID/g
same,% ID/g in bladder,[3],4.25 % ID/g
same,% ID/g in blood,[3],0.01 % ID/g
same,% ID/g in bone (femur + joint),[3],0.05 % ID/g
same,% ID/g in brain,[3],0.02 % ID/g
same,% ID/g in feces,[3],3.46 % ID/g
same,% ID/g in heart,[3],0.10 % ID/g
same,% ID/g in kidneys,[3],0.74 % ID/g
same,% ID/g in large intestines,[3],0.49 % ID/g
same,% ID/g in liver,[3],0.39 % ID/g
same,% ID/g in lungs,[3],0.01 % ID/g
same,% ID/g in pancreas,[3],0.10 % ID/g
same,% ID/g in small intestines,[3],0.29 % ID/g
same,% ID/g in spleen,[3],0.11 % ID/g
same,% ID/g in stomach,[3],0.01 % ID/g
same,% ID/g in tail,[3],0.14 % ID/g
same,% ID/g in thyroids,[3],0.10 % ID/g
same,% ID/g in urine,[3],12.78 % ID/g
same,% ID/g in bladder,[4],3.69 % ID/g
same,% ID/g in blood,[4],0.00 % ID/g
same,% ID/g in bone (femur + joint),[4],0.02 % ID/g
same,% ID/g in brain,[4],−0.01 % ID/g
same,% ID/g in feces,[4],3.49 % ID/g
same,% ID/g in heart,[4],−0.04 % ID/g
same,% ID/g in kidneys,[4],0.78 % ID/g
same,% ID/g in large intestines,[4],0.45 % ID/g
same,% ID/g in liver,[4],0.36 % ID/g
same,% ID/g in lungs,[4],−0.05 % ID/g
same,% ID/g in pancreas,[4],−0.12 % ID/g
same,% ID/g in small intestines,[4],0.29 % ID/g
same,% ID/g in spleen,[4],0.09 % ID/g
same,% ID/g in stomach,[4],0.04 % ID/g
same,% ID/g in tail,[4],0.13 % ID/g
same,% ID/g in thyroids,[4],−6.94 % ID/g
same,% ID/g in urine,[4],13.51 % ID/g
same,% ID/g in bladder,[5],8.52 % ID/g
same,% ID/g in blood,[5],0.04 % ID/g
same,% ID/g in bone (femur + joint),[5],0.08 % ID/g
same,% ID/g in brain,[5],−0.01 % ID/g
same,% ID/g in feces,[5],5.27 % ID/g
same,% ID/g in heart,[5],0.28 % ID/g
same,% ID/g in kidneys,[5],1.07 % ID/g
same,% ID/g in large intestines,[5],0.68 % ID/g
same,% ID/g in liver,[5],0.55 % ID/g
same,% ID/g in lungs,[5],0.15 % ID/g
same,% ID/g in pancreas,[5],0.13 % ID/g
same,% ID/g in small intestines,[5],0.42 % ID/g
same,% ID/g in spleen,[5],0.43 % ID/g
same,% ID/g in stomach,[5],0.13 % ID/g
same,% ID/g in tail,[5],0.28 % ID/g
same,% ID/g in thyroids,[5],19.89 % ID/g
same,% ID/g in urine,[5],22.27 % ID/g
same,route of excretion (in words),"i.v. injection, C57BL/6 mice",Most of the injected dose was renally excreted
same,clearance from blood / mice (in words),[6],rapidly cleared from mice
same,organ accumulation (in words),[6],did not accumulate in any organ
